Series [1] has as its system TNF alpha release from human PBMCs. As to the kind of experiment: Inhibition of TNF alpha release from human PBMCs. The class given is cell-based. Particulars: LPS 1 μg/ml, 18 hours, AlphaLISA. An outline of the steps: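 Fresh or thawed PBMCs in serum-free medium with 0.5% HSA, stimulated with 1 μg/ml LPS plus titrated compound for 18 h at 37° C. TNF-a in supernatant by AlphaLISA; window set with a reference PDE4 inhibitor at 100×IC50. EC50 and Emax from sigmoidal fits.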
Background: Alpha assays give light when donor and acceptor beads are brought close together.

Series [2] has as its target T1, glucocorticoid receptor (GR), recombinant full-length receptor protein (Homo sapiens, UniProt P04150).
T1 construct: 4 nM recombinant, full-length receptor protein was incubated with increasing concentrations of GR ligand; purchased Life Technologies A-15897
T1 sequence (P04150 1-777): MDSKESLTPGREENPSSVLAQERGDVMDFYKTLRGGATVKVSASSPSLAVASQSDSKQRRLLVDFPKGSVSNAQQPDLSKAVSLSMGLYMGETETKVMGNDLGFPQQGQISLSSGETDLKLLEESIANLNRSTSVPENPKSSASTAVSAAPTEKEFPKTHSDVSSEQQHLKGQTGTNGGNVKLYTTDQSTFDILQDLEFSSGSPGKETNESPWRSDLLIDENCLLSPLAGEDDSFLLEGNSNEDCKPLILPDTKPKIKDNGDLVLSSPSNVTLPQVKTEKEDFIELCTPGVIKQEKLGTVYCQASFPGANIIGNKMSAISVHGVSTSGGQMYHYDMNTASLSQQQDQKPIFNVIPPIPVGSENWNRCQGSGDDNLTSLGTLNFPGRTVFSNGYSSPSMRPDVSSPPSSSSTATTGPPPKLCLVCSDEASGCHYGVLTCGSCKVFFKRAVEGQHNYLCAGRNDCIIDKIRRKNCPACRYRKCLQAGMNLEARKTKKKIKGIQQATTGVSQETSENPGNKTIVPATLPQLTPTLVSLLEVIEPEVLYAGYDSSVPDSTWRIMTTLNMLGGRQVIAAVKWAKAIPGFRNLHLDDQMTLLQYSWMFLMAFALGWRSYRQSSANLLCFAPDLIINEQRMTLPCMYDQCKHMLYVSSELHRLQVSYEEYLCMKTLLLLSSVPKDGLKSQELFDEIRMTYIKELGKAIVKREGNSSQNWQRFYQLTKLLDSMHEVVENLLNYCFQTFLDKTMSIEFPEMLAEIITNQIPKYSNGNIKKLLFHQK
As to the kind of experiment: Glucocorticoid receptor binding assay (fluorescence polarization kit). Particulars: 4 nM receptor, 2.5 nM Fluormone GS1 tracer, 2h room temperature, read-out: GR binding ABS IC50. On the procedure:
Test compounds were diluted in DMSO over seven orders of magnitude, further diluted in assay buffer and distributed into 384-well plates. The sensitivity limit of this assay was 2-4 nM.
Data were processed by sigmoidal curve fitting.
Absolute (Abs) IC50 and Emax were determined from the curve fits.
A general note: Fluorescence polarisation rises when a labelled molecule tumbles more slowly, as on binding a larger partner.

Series [3] is described as follows: Human liver microsomes (HLM) assay. The class given is in vitro ADME. The note with it: hepatic extraction ratio; 0.5 μM compound, 0.5 mg/mL microsomes, NADPH, 37° C. On the procedure:
Incubations of test compounds in DMSO, diluted with phosphate buffer, pH 7.4, at 0.5 μM were carried out with human liver microsomes (0.5 mg/mL). The percentage of organic solvent in the incubations was 1%. The human liver microsomal suspension in phosphate buffer was mixed with NADPH (1 mM) and preheated to 37° C. before test compound was added. Aliquots were taken at 0, 5, 10, 20 and 30 minutes, and reactions were terminated by addition of methanol containing analytical internal standard (IS).
The results were expressed as apparent clearance (Clapp) (mL/min/kg) and hepatic extraction ratio (Eh) (%) calculated from the rate constant (k) (min^−1) of test compound depletion.
In general terms: Microsomes from liver hold many membrane-bound enzymes, among them those of drug oxidation.

pEC50, pIC50: −log10 of the molar value.

Consider 14 compounds from patent publication US10494363B2, “Non-steroidal glucocorticoid receptor modulators for local drug delivery” (LEO PHARMA A/S, priority 2015, dated 2019).

For the compound `Cc1scnc1C(=O)N[C@@H](C)[C@H](Oc1ccc(C(=O)O[C@H]2CCCN(C(=O)[C@H]3COC(=O)C3)C2)cc1)c1ccc(C2CC2)cc1` [Compound 29, [(3S)-1-[(3R)-5-oxotetrahydrofuran-3-carbonyl]-3-piperidyl] 4-[(1R,2S)-1-(4-cyclopropylphenyl)-2-[(5-methylthiazole-4-carbonyl)amino]propoxy]benzoate], in series [1] (PBMC), the negative-log EC50 (pEC50) – broadly, the EC50 on a negative log10 scale, so that one unit is a factor of ten – is over 7.00. Also, the negative-log IC50 (pIC50) – broadly, the IC50 on a negative log10 scale, so that one unit is a factor of ten – in series [2] was over 7.00. Moreover, in series [3], the “HLM assay Eh (%)” value is listed as “* (extraction ratio (Eh)>90%)”.

On to `Cc1ncsc1C(=O)N[C@@H](C)[C@H](Oc1ccc(C(=O)O[C@H]2CCCN(C(=O)[C@H]3COC(=O)C3)C2)cc1)c1ccc(C2CC2)cc1` [Compound 30, [(3S)-1-[(3R)-5-oxotetrahydrofuran-3-carbonyl]-3-piperidyl] 4-[(1R,2S)-1-(4-cyclopropylphenyl)-2-[(4-methylthiazole-5-carbonyl)amino]propoxy]benzoate], for which the negative logarithm of the EC50 (pEC50) in series [1] (PBMC) is 6.52 to 7.00. Further, the negative-log IC50 (pIC50) in series [2] is over 7.00. In addition, the “HLM assay Eh (%)” value in series [3] is “* (extraction ratio (Eh)>90%)”.

In turn, `Cc1nnc(C(=O)N[C@@H](C)[C@H](Oc2ccc(C(=O)O[C@H]3CCCN(C(=O)[C@H]4COC(=O)C4)C3)cc2)c2ccc(C3CC3)cc2)o1` [Compound 31, [(3S)-1-[(3R)-5-oxotetrahydrofuran-3-carbonyl]-3-piperidyl] 4-[(1R,2S)-1-(4-cyclopropylphenyl)-2-[(5-methyl-1,3,4-oxadiazole-2-carbonyl)amino]propoxy]benzoate] had a pEC50 in series [1] (PBMC) of over 7.00. Besides, the pIC50 in series [2] is over 7.00. In addition, the “HLM assay Eh (%)” value in series [3] is “* (extraction ratio (Eh)>90%)”.

As for `Cc1nnsc1C(=O)N[C@@H](C)[C@H](Oc1ccc(C(=O)O[C@H]2CCCN(C(=O)[C@H]3COC(=O)C3)C2)cc1)c1ccc(C2CC2)cc1` [Compound 32, [(3S)-1-[(3R)-5-oxotetrahydrofuran-3-carbonyl]-3-piperidyl] 4-[(1R,2S)-1-(4-cyclopropylphenyl)-2-[(4-methylthiadiazole-5-carbonyl)amino]propoxy]benzoate], the pEC50 in series [1] (PBMC) is over 7.00. Moreover, in series [2], the negative logarithm of the IC50 (pIC50) is over 7.00. The “HLM assay Eh (%)” value in series [3] is “* (extraction ratio (Eh)>90%)”.

Regarding `Cc1ncoc1C(=O)N[C@@H](C)[C@H](Oc1ccc(C(=O)O[C@H]2CCCN(C(=O)[C@H]3COC(=O)C3)C2)cc1)c1ccc(C2CC2)cc1` [Compound 33, [(3S)-1-[(3R)-5-oxotetrahydrofuran-3-carbonyl]-3-piperidyl] 4-[(1R,2S)-1-(4-cyclopropylphenyl)-2-[(4-methyloxazole-5-carbonyl)amino]propoxy]benzoate], the negative logarithm of the EC50 (pEC50) in series [1] (PBMC) was 6.52 to 7.00. Further, in series [2], the negative-log IC50 (pIC50) was over 7.00. For the same compound, the “HLM assay Eh (%)” value in series [3] is “* (extraction ratio (Eh)>90%)”.

For `COCC(=O)N[C@@H](C)[C@H](Oc1ccc(C(=O)O[C@H]2CCCN(C(=O)[C@H]3COC(=O)C3)C2)cc1)c1ccc(C2CC2)cc1` [Compound 34, [(3S)-1-[(3R)-5-oxotetrahydrofuran-3-carbonyl]-3-piperidyl] 4-[(1R,2S)-1-(4-cyclopropylphenyl)-2-[(2-methoxyacetyl)amino]propoxy]benzoate], in series [1] (PBMC), the pEC50 was over 7.00. In addition, in series [2], the pIC50 is over 7.00. Further, the “HLM assay Eh (%)” value in series [3] was “* (extraction ratio (Eh)>90%)”.

Consider `C[C@H](NC(=O)c1ccnn1C)[C@H](Oc1ccc(C(=O)O[C@H]2CCCN(C(=O)[C@H]3COC(=O)C3)C2)cc1)c1ccc(C2CC2)cc1` [Compound 35, [(3S)-1-[(3R)-5-oxotetrahydrofuran-3-carbonyl]-3-piperidyl] 4-[(1R,2S)-1-(4-cyclopropylphenyl)-2-[(2-methylpyrazole-3-carbonyl)amino]propoxy]benzoate], for which, in series [1] (PBMC), the pEC50 was 6.52 to 7.00. Besides, in series [2], the pIC50 was over 7.00. Also, the “HLM assay Eh (%)” value in series [3] is “* (extraction ratio (Eh)>90%)”.

`Cc1ncc(C(=O)N[C@@H](C)[C@H](Oc2ccc(C(=O)O[C@H]3CCCN(C(=O)[C@H]4COC(=O)C4)C3)cc2)c2ccc(C3CC3)cc2)s1` [Compound 36, [(3S)-1-[(3R)-5-oxotetrahydrofuran-3-carbonyl]-3-piperidyl] 4-[(1R,2S)-1-(4-cyclopropylphenyl)-2-[(2-methylthiazole-5-carbonyl)amino]propoxy]benzoate] showed a negative-log EC50 (pEC50) in series [1] (PBMC) of over 7.00. Also, the pIC50 in series [2] was over 7.00. Also, the “HLM assay Eh (%)” value in series [3] is “* (extraction ratio (Eh)>90%)”.

Take `C[C@H](NC(=O)[C@H]1CCCO1)[C@H](Oc1ccc(C(=O)O[C@H]2CCCN(C(=O)[C@H]3COC(=O)C3)C2)cc1)c1ccc(C2CC2)cc1` [Compound 37, [(3S)-1-[(3R)-5-oxotetrahydrofuran-3-carbonyl]-3-piperidyl] 4-[(1R,2S)-1-(4-cyclopropylphenyl)-2-[[(2R)-tetrahydrofuran-2-carbonyl]amino]propoxy]benzoate]: in series [1] (PBMC), the pEC50 is over 7.00. In addition, in series [2], the negative-log IC50 (pIC50) is over 7.00. Moreover, the “HLM assay Eh (%)” value in series [3] is listed as “* (extraction ratio (Eh)>90%)”.

Compound `C[C@H](NC(=O)c1cnnn1C)[C@H](Oc1ccc(C(=O)O[C@H]2CCCN(C(=O)[C@H]3COC(=O)C3)C2)cc1)c1ccc(C2CC2)cc1` [Compound 38, [(3S)-1-[(3R)-5-oxotetrahydrofuran-3-carbonyl]-3-piperidyl] 4-[(1R,2S)-1-(4-cyclopropylphenyl)-2-[(3-methyltriazole-4-carbonyl)amino]propoxy]benzoate] had a negative logarithm of the EC50 (pEC50) in series [1] of 6.52 to 7.00. In addition, the pIC50 in series [2] was over 7.00. The “HLM assay Eh (%)” value in series [3] is “* (extraction ratio (Eh)>90%)”.

In series [1] (PBMC), `C[C@H](NC(=O)c1ncon1)[C@H](Oc1ccc(C(=O)O[C@H]2CCCN(C(=O)[C@H]3COC(=O)C3)C2)cc1)c1ccc(C2CC2)cc1` [Compound 39, [(3S)-1-[(3R)-5-oxotetrahydrofuran-3-carbonyl]-3-piperidyl] 4-[(1R,2S)-1-(4-cyclopropylphenyl)-2-(1,2,4-oxadiazole-3-carbonylamino)propoxy]benzoate] showed a negative logarithm of the EC50 (pEC50) of over 7.00. In addition, the pIC50 in series [2] was over 7.00. Besides, the “HLM assay Eh (%)” value in series [3] is recorded as “* (extraction ratio (Eh)>90%)”.

In turn, `C[C@H](NC(=O)c1nccn1C)[C@H](Oc1ccc(C(=O)O[C@H]2CCCN(C(=O)[C@H]3COC(=O)C3)C2)cc1)c1ccc(C2CC2)cc1` [Compound 40, [(3S)-1-[(3R)-5-oxotetrahydrofuran-3-carbonyl]-3-piperidyl] 4-[(1R,2S)-1-(4-cyclopropylphenyl)-2-[(1-methylimidazole-2-carbonyl)amino]propoxy]benzoate] showed a pEC50 in series [1] (PBMC) of over 7.00. Besides, the pIC50 in series [2] was over 7.00. Moreover, the “HLM assay Eh (%)” value in series [3] was “* (extraction ratio (Eh)>90%)”.

`Cc1cc(C(=O)N[C@@H](C)[C@H](Oc2ccc(C(=O)O[C@H]3CCCN(C(=O)[C@H]4COC(=O)C4)C3)cc2)c2ccc(C3CC3)cc2)on1` [Compound 41, [(3S)-1-[(3R)-5-oxotetrahydrofuran-3-carbonyl]-3-piperidyl] 4-[(1R,2S)-1-(4-cyclopropylphenyl)-2-[(3-methylisoxazole-5-carbonyl)amino]propoxy]benzoate] gave a negative-log EC50 (pEC50) in series [1] (PBMC) of over 7.00. The pIC50 in series [2] is over 7.00. Moreover, the “HLM assay Eh (%)” value in series [3] is recorded as “* (extraction ratio (Eh)>90%)”.

In series [1] (PBMC), `Cc1nc(C(=O)N[C@@H](C)[C@H](Oc2ccc(C(=O)O[C@H]3CCCN(C(=O)[C@H]4COC(=O)C4)C3)cc2)c2ccc(C3CC3)cc2)no1` [Compound 42, [(3S)-1-[(3R)-5-oxotetrahydrofuran-3-carbonyl]-3-piperidyl] 4-[(1R,2S)-1-(4-cyclopropylphenyl)-2-[(5-methyl-1,2,4-oxadiazole-3-carbonyl)amino]propoxy]benzoate] gave a pEC50 of over 7.00. Moreover, the pIC50 in series [2] was over 7.00. In series [3], the “HLM assay Eh (%)” value is “* (extraction ratio (Eh)>90%)”.
